Like-named read-outs stand apart in the source and are kept apart here.

A short description of data set [1]: aqueous solubility in de-ionized water. It counts as physicochemical. The conditions noted are these: for solubility: thermodynamic from solid. The procedure: Unless otherwise indicated, the solubility measurements described herein are determined by dissolving the test compound in de-ionized (DI) water at 25° C. […] In particular, the compounds provided by Examples 22, 23, 28, 30, 31, 37 and 38 are water soluble.

The test system of data set [2] is HCC461 human NSCLC xenograft. Nature of the data set: HCC461 human NSCLC xenograft tumor model in mice. The data set is classed as in vivo. The note with it: FIG. 1; 20 mg/kg per dose; injections at days 7, 9, 11, 14, 16 and 18 post tumor cell injection. The procedure: Compound 22 (prepared according to Example 22) and Compound 28 (prepared according to Example 28) were tested in a HCC461 human NSCLC xenograft tumor model in mice.
Preparation of Tumor Cells • 1. Hcc461 cells were cultured in complete RPMI medium and excluded any contamination • 2. When cells are 70-80% confluent, medium was removed and cells were washed with serum free media, trypsinized, harvested and washed with serum free media for three times by centrifuge. After final washing, cells were counted and mixed with matrigel at 1:1 ration in volume. Cells were suspended in a volume that 200 PI contains required number of cells per injection.
Preparation of Mice • 1. Mice should be 4-6 weeks old. • 2. Allow 3-5 days acclimatization period after mice have arrived.
Preparation of the Injection • 1. Clean and sterilize the inoculation area of the mice with iodine solutions and ethanol. • 2. Take cells with 1-cc syringe. • 3. Inject cells (1×10^7) with 27 gauge needles subcutaneously (s.c.) into the lower flank of the mice. • 4. Therapy was started after 1 week when the tumors have reached an average volume of ˜250 mm^3. • 5. Tumor diameters are measured with digital calipers, and the tumor volume in mm^3 is calculated by the formula: Volume=(width)^2×length/2
Treatment • 1. Compound 22 and Compound 28 were dissolved in water at concentration of 5 mg/ml and diluted to working solution with D5W before injection. Compound 16 was administered at 20 mg/kg in a mixture of 5% ethanol-5% cremaphor-90% saline. • 2. Each tumor bearing mouse was injected with Compound 22 at 20 mg/kg, Compound 28 at 20 mg/kg or at 10 mg/kg, or Compound 16 at 20 mg/kg via tail vein and continually injected with the same method for a total of 6 times, on days 7, 9, 11, 14, 16, and 18 post tumor-cell injection.
On the technique in general: In xenograft studies the graft and the host belong to different species.

Data set [3] can be described thus: stability of aqueous solution at room temperature. It counts as physicochemical. The protocol: To the combined filtration above was added a stock solution of NaOH in water (14.4 mg/mL, 1 mL, 0.360 mmol). The resulting solution was concentrated to remove most of MeOH at room temperature. Then the residue was diluted with DI water (100 mL). This solution was filtered through a syringe filter (0.45 um) to remove tiny particles. The filtrate was lyophilized to afford the desired compound monosodium salt, 31 (285 mg, 97% yield for two steps).

A further data set deals with HCT-116 cells. The conditions noted are these: a human colorectal carcinoma line; cited from earlier work.
Another data set relates to microtubule assembly. The conditions noted are these: Cruz-Monserrate et al., Mol. Pharmacol., 2003; cited from earlier work.
Where [4] appears, read: de-ionized (DI) water at 25° C., read-out: water solubility.

Regarding `CC(C)[C@@H]1NC(=O)[C@@H](NC(=O)[C@@H](OP(=O)(O)O)C(C)C)Cc2ccc3c(c2)[C@]24C5=C(N=C1O5)c1ncc(o1)-c1c[nH]c5cccc(c15)-c1cccc2c1NC4O3` (stereo partly drawn) [Compound 22], in data set [1] (setting [4]), the solubility was more than 1 mg/mL. Also, in data set [2], the tumor free animals result was “no tumor free animals” and the “weight loss in the treated group” value is “No weight loss”. As for `CCC(O)(CC)C(=O)N[C@H]1Cc2ccc3c(c2)[C@]24C5=C(N=C(O5)[C@H](C(C)C)NC1=O)c1ncc(o1)-c1cn(P(=O)(O)O)c5cccc(c15)-c1cccc2c1NC4O3` (stereo partly drawn) [Compound 30], in data set [1] (setting [4]), the solubility is more than 1 mg/mL. For `CC(C)C1NC(=O)[C@@H](NC(=O)[C@@H](O)C(C)C)Cc2ccc3c(c2)C24C5=C(N=C1O5)c1ncc(o1)-c1c[nH]c5cccc(c15)-c1cccc2c1N[C@H]4O3` (stereo partly drawn) [Compound 16], the tumor free animals entry in data set [2] is “no tumor free animals”. With `CCC(O)(CC)C(=O)N[C@H]1Cc2ccc3c(c2)C24C5=C(N=C(O5)[C@H](C(C)C)NC1=O)c1ncc(o1)-c1c[nH]c5c(OP(=O)([O-])[O-])ccc(c15)-c1cccc2c1NC4O3.[Na+].[Na+]` (stereo partly drawn) [Compound 38], the solubility in data set [1] (setting [4]) was more than 1 mg/mL. As to `CCC(O)(CC)C(=O)N[C@H]1Cc2ccc3c(c2)[C@]24C5=C(N=C(O5)[C@H](C(C)C)NC1=O)c1ncc(o1)-c1cn(P(=O)([O-])O)c5cccc(c15)-c1cccc2c1NC4O3.[Na+]` (stereo partly drawn) [Compound 31], the solubility in data set [1] (setting [4]) was more than 1 mg/mL; in data set [1] (water, 25 °C, water, read-out: solubility in water) it was 20 mg/mL. Moreover, the “time for which the aqueous solution is stable” value in data set [3] is given as “more than 48 hours”. Regarding `CC(C)[C@@H]1NC(=O)[C@@H](NC(=O)[C@@H](OP(=O)([O-])O)C(C)C)Cc2ccc3c(c2)[C@]24C5=C(N=C1O5)c1ncc(o1)-c1c[nH]c5cccc(c15)-c1cccc2c1NC4O3.[Na+]` (stereo partly drawn) [Compound 23], the “amount shown to dissolve in 1 mL of de-ionized water” value in data set [1] (1 mL of de-ionized water) came out at 5 mg. The solubility in data set [1] (setting [4]) was more than 1 mg/mL.

As to `CC(C)[C@H](O)C(=O)NC1Cc2ccc3c(c2)[C@]24C5=C(N=C(O5)[C@H](C(C)C)NC1=O)c1nc(Cl)c(o1)-c1c(Cl)[nH]c5cccc(c15)-c1cccc2c1NC4O3` (stereo partly drawn) [Diazonamide A], in the data set with HCT-116 cells, the “GI50 values (50% growth inhibitory concentration)” value is “less than 15 ng/ml”. Further, in the data set on microtubule assembly, the “inhibition of microtubule assembly” value was “inhibit microtubule assembly”. On to `CCC(O)(CC)C(=O)N[C@H]1Cc2ccc3c(c2)C24C5=C(N=C(O5)[C@H](C(C)C)NC1=O)c1ncc(o1)-c1c[nH]c5c(OP(=O)(O)O)ccc(c15)-c1cccc2c1NC4O3` (stereo partly drawn) [Compound 37], for which, in data set [1] (setting [4]), the solubility is more than 1 mg/mL. Same read-out and setting: then `CC(C)[C@H](O)C(=O)N[C@H]1Cc2ccc3c(c2)[C@]24C5=C(N=C(O5)[C@H](C(C)C)NC1=O)c1ncc(o1)-c1cn(P(=O)(O)O)c5cccc(c15)-c1cccc2c1NC4O3` (stereo partly drawn) [Compound 28], with more than 1 mg/mL.

As a reminder, the solubility is the concentration that dissolves in the medium under given conditions.

Source of the values: patent US7960420B2, “Diazonamide analogs with improved solubility” (Joyant Pharmaceuticals, Inc, priority 2007, dated 2011).
